Reference: patent US9345706B2, “Benzoxazole kinase inhibitors and methods of use” (Intellikine LLC, priority 2008, dated 2016)

Tests used:
xenograft tumors = experiment: Tumor volume of xenograft tumors in female nude athymic mice; type: in vivo, mouse; details: U87-MG, A549, ZR-75-1, or 786-0 tumor cells
Protocol: For example, treatment with one or more compounds of the invention results in a reduction in the growth or tumor volume caused by engraftment of U87-MG, A549, ZR-75-1, or 786-0 tumor cells in nude mice. The compounds of the invention may be administered orally, subcutaneously, or intravenously, or any other compound administration methods provided herein. In some cases, the compounds are administered once a week, every other day, once a day, twice a day, three times a day, four times a day or more. In some cases, 0.01 mg/kg of compound is administered, 0.05 mg/kg, 0.1 mg/kg, 0.2 mg/kg, 0.4 mg/kg, 0.5 mg/kg, 1 mg/kg, 1.5 mg/kg, 2 mg/kg, 3 mg/kg, 4 mg/kg, 5 mg/kg, 7.5 mg/kg, 10 mg/kg, 100 mg/kg or more compound is administered at a time. In some cases, a significant reduction in tumor volume may be detected within 5, 10, 15, 20, 25, or 30 days of tumor engraftment.
Mice are inoculated subcutaneously in the right flank with 0.01 to 0.5 ml of tumor cells such as those listed above (approximately 1.0×10^5 to 1.0×10^8 cells/mouse). Five to 10 days following inoculation, tumors are measured using calipers and tumor weight is calculated, for example using the animal study management software, such as Study Director V.1.6.70 (Study Log). […] Body weights are recorded when the mice are pair-matched. […]

[1] = system: HCT116 cells or SW620 cells; experiment: Cell cycle progression, G0/G1 arrest; type: cell-based; details: compared to an inhibitor that inhibits one or more PI3-kinases
Protocol: FIG. 9A-9B depict the effects of a compound of Table 1 of the present invention on cell cycle progression in HCT116 and SW620 cells as compared to various other compounds. FIG. 9A depicts the inhibiting effect of the compound at 500 nM on cell cycle progression as compared to DMSO vehicle control and as compared to 10 uM doxorubicin. FIG. 9B depicts the effect of the indicated compounds on the population of cells residing in G0/G1 phase during culture for two different cell lines.
In some embodiments, one or more compounds of the invention including those in Table 1 may cause cell cycle arrest. […] In some cases, about 35%, 40%, 50%, 55%, 60%, 65%, 70% or more of cells treated with one or more compounds of the invention may be in the G0/G1 cell cycle stage.

PI3K α = biological target: T1, PI3K α (Homo sapiens, UniProt P42336); experiment: PI3K α kinase inhibition assay; type: biochemical
T1 construct: purchased Upstate
T1 sequence (P42336 whole entry): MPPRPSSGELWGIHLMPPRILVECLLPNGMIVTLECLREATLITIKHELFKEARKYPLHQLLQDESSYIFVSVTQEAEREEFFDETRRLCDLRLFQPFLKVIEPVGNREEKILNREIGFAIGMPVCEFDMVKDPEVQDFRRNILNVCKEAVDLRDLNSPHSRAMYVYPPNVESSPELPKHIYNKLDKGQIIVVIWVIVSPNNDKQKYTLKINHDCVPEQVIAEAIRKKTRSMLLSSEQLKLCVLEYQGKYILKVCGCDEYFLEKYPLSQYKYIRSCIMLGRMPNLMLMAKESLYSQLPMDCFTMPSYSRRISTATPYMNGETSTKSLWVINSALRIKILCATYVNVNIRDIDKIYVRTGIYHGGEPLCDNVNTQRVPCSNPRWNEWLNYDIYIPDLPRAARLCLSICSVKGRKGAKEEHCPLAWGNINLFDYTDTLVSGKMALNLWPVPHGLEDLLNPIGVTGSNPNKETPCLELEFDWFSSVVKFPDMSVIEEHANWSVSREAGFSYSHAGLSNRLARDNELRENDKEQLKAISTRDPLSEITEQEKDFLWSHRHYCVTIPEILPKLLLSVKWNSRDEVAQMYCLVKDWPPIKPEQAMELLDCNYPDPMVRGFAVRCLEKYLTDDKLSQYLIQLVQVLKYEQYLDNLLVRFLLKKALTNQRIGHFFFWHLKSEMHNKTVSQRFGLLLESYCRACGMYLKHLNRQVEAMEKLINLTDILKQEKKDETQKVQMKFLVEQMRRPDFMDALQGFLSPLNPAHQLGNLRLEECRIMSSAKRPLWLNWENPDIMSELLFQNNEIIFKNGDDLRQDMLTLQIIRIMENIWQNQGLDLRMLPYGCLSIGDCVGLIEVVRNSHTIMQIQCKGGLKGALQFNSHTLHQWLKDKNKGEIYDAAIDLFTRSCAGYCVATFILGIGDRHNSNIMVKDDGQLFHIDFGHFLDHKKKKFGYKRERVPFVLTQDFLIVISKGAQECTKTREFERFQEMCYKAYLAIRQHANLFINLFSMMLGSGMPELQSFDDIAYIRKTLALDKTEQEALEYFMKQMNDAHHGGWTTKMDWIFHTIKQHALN
T1 sequence (P27986 whole entry partner): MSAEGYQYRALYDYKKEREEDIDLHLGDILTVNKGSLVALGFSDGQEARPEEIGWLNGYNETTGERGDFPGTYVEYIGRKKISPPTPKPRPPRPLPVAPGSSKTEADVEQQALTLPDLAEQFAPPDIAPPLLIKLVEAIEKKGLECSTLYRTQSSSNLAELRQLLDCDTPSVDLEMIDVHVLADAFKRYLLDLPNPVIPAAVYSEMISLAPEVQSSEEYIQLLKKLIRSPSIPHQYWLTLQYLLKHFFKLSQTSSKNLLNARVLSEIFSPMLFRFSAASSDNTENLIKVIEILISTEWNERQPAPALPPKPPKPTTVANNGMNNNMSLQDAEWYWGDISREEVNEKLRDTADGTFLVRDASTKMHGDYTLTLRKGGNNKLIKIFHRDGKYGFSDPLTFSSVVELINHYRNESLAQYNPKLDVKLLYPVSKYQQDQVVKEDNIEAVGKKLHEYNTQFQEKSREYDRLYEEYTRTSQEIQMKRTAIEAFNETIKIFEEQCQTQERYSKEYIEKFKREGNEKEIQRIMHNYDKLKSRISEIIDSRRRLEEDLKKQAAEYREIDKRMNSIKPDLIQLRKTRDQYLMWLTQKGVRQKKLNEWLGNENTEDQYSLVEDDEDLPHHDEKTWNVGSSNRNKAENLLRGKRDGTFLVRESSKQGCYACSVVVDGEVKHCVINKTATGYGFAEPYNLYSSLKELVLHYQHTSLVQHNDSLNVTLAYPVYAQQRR

| SMILES | tumor volume of xenograft tumors (xenograft tumors) | degree of G0/G1 arrest [1] | IC50 (PI3K α) [µM] |
| --- | --- | --- | --- |
| CC(C)n1nc(-c2ccc3oc(N)nc3c2)c2c(N)ncnc21 [compound 1] | cause a reduction in tumor volume of xenograft tumors | comparable or a greater degree of G0/G1 arrest | – |
| COC(=O)Nc1noc2ccc(-c3nn(C(C)C)c4ncnc(N)c34)cc12 [compound 19] | – | – | > 10 |
| COC(=O)Nc1noc2cc(-c3nn(C(C)C)c4ncnc(N)c34)ccc12 [compound 20] | – | – | < 10 |
